Values joined by “and” are separate entries in the source; they are usually repeats but may differ in a detail not shown here. Identical values can stand only once.
Target: SSTR2 (Homo sapiens, UniProt P30874)
Assay: SSTRs Gi-mediated cAMP inhibition, GloSensor, HEK293, 5 μM forskolin, 15 min room temperature (SSTR2 wild-type);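 on Bottom (best-fit value): normalized to the maximal wild-type response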;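 on Bottom (best-fit): normalized to the maximal wild-type response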;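 on Span (best-fit value), cAMP inhibition: normalized to the maximal wild-type response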;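 on Span (best-fit value): normalized to the maximal wild-type response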;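 on Span (best-fit): normalized to the maximal wild-type response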;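 on Span: normalized to the maximal wild-type response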;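 on Top (best-fit): normalized to the maximal wild-type response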
Type: cell-based
Design: Best-fit Top, cAMP inhibition / Span, cAMP inhibition / Best-fit Bottom / Best-fit Top / Best-fit Span / Bottom / Span (best-fit value), cAMP inhibition / Top (best-fit value), cAMP inhibition: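 normalized to the maximal wild-type response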
Conditions: for Bottom (best-fit value) / LogEC50 (best-fit value) / Span (best-fit value) / Top (best-fit value): Y205A panel
Method: The levels of the intracellular 3′, 5′-cyclic AMP (cAMP) were measured by the GloSensor cAMP assay (Promega) as described in the previous studies[28],[41] which has been widely used. The human full-length SSTRs and mutants were cloned into the pcDNA3.1+ vector with a HA signal sequence followed by a Flag tag at the N-terminus. HEK293 cells (ATCC, CRL-1573) were seeded into 6-well microplates at a density of 1.0 × 10^6 cells/well and cultured for 24 h at 37 °C with 5% CO2. Cells were then co-transfected with SSTR wild-type or mutants and GloSensor plasmids. After 24 h of transfection, the cells were dissociated with TrypLE™ Express Enzyme (1X) (Thermo Fisher Scientific) and collected by centrifugation at 500 × g for 5 min. Then the collected cells were suspended in Hank’s balanced salt solution [HBSS (Thermo Fisher Scientific)] supplemented with […] (YEASEN), and then the suspension cells were seeded into 96-well plates with 90 μl/well. After incubating at room temperature for 40 min, 5 μM forskolin and ligands diluted in HBSS were added to each well and the plates were incubated at room temperature for 15 min. […] were measured using the Synergy H1 microplate reader (BioTek) and the data presented are means of at least three independent experiments.

[1] = WT-2 (run 2 of each mutant's batch)
[2] = WT-3 (run 3 of each mutant's batch)
[3] = cAMP inhibition best-fit, D122A set, WT-1
[4] = cAMP inhibition best-fit, D122A set, WT-2
[5] = cAMP inhibition best-fit, D122A set, WT-3
[6] = cAMP inhibition best-fit, F127A set, WT-1
[7] = cAMP inhibition best-fit, F127A set, WT-2
[8] = cAMP inhibition best-fit, F127A set, WT-3
[9] = cAMP inhibition best-fit, I130A set, WT-1
[10] = cAMP inhibition best-fit, I130A set, WT-2
[11] = cAMP inhibition best-fit, I130A set, WT-3
[12] = cAMP inhibition best-fit, Q102A set, WT-1
[13] = cAMP inhibition best-fit, Q102A set, WT-2
[14] = cAMP inhibition best-fit, Q102A set, WT-3
[15] = cAMP inhibition best-fit, Q126A set, WT-1
[16] = cAMP inhibition best-fit, Q126A set, WT-2
[17] = cAMP inhibition best-fit, Q126A set, WT-3
[18] = cAMP inhibition best-fit, V103A set, WT-1
[19] = cAMP inhibition best-fit, V103A set, WT-2
[20] = cAMP inhibition best-fit, V103A set, WT-3

Chain of SSTR2 (P30874 whole entry): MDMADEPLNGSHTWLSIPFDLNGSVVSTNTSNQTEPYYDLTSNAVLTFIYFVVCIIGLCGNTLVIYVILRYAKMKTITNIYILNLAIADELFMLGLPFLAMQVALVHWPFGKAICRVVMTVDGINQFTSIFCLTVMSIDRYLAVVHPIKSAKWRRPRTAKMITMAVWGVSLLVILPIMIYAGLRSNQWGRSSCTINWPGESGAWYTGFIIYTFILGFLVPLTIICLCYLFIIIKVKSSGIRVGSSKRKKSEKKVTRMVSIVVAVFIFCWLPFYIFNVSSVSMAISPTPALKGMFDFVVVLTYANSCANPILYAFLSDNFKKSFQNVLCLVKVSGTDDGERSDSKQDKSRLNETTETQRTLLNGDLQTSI

SMILES: N#Cc1cccc(-c2ccc3ncc(-c4cc(F)cc(F)c4)c(N4CCC(N)CC4)c3c2)c1O [paltusotine]
- Span (best-fit) (WT-1, run paired with T194H): 111
- Top (best-fit) (WT-1, run paired with T194H): 106.2
- Bottom (best-fit) (WT-1, run paired with V103N): 16.51
- LogEC50 (WT-1, run paired with V103N): -8.678
- Span (best-fit) (WT-1, run paired with V103N): 89.51
- Top (best-fit) (WT-1, run paired with V103N): 106
- LogEC50 (WT-1, run paired with Y205R): -9.27
- Span (best-fit) (WT-1, run paired with Y205R): 108.3
- Top (best-fit) (WT-1, run paired with Y205R): 106.3
- Span (best-fit value), cAMP inhibition [1]: 111.8 and 113.8 and 107.7 and 112.3
- Top (best-fit value), cAMP inhibition [1]: 108 and 108.3 and 107.8 and 112.4
- Bottom (best-fit) (WT-2, run paired with D295F): -1.411
- LogEC50 (WT-2, run paired with D295F): -9.3
- Span (best-fit) (WT-2, run paired with D295F): 105.2
- Top (best-fit) (WT-2, run paired with D295F): 103.8
- Bottom (best-fit) (WT-2, run paired with F294Y): -1.411
- LogEC50 (WT-2, run paired with F294Y): -9.3
- Span (best-fit) (WT-2, run paired with F294Y): 105.2
- Top (best-fit) (WT-2, run paired with F294Y): 103.8
- Bottom (best-fit) (WT-2, run paired with I195M): 10.59
- LogEC50 (WT-2, run paired with I195M): -8.695
- Span (best-fit) (WT-2, run paired with I195M): 88.58
- Top (best-fit) (WT-2, run paired with I195M): 99.16
- Bottom (best-fit) (WT-2, run paired with T194H): -0.3773
- LogEC50 (WT-2, run paired with T194H): -8.796
- Span (best-fit) (WT-2, run paired with T194H): 113.8
- Top (best-fit) (WT-2, run paired with T194H): 113.4
- Bottom (best-fit) (WT-2, run paired with V103N): 8.218
- LogEC50 (WT-2, run paired with V103N): -8.87
- Span (best-fit) (WT-2, run paired with V103N): 100.4
- Top (best-fit) (WT-2, run paired with V103N): 108.6
- LogEC50 (WT-2, run paired with Y205R): -9.271
- Span (best-fit) (WT-2, run paired with Y205R): 104.8
- Top (best-fit) (WT-2, run paired with Y205R): 105.4
- Span (best-fit value), cAMP inhibition [2]: 106.7 and 111.8 and 113.8 and 112.4 and 113.7
- Top (best-fit value), cAMP inhibition [2]: 107.8 and 108 and 112 and 113.6
- Bottom (best-fit) (WT-3, run paired with D295F): 12.84
- LogEC50 (WT-3, run paired with D295F): -8.964
- Span (best-fit) (WT-3, run paired with D295F): 85.7
- Top (best-fit) (WT-3, run paired with D295F): 98.54
- Bottom (best-fit) (WT-3, run paired with F294Y): -4.818
- LogEC50 (WT-3, run paired with F294Y): -8.937
- Span (best-fit) (WT-3, run paired with F294Y): 111
- Top (best-fit) (WT-3, run paired with F294Y): 106.2
- Bottom (best-fit) (WT-3, run paired with T194H): 8.218
- LogEC50 (WT-3, run paired with T194H): -8.87
- Span (best-fit) (WT-3, run paired with T194H): 100.4
- Top (best-fit) (WT-3, run paired with T194H): 108.6
- Bottom (best-fit) (WT-3, run paired with V103N): -2.506
- LogEC50 (WT-3, run paired with V103N): -8.966
- Span (best-fit) (WT-3, run paired with V103N): 107.7
- Top (best-fit) (WT-3, run paired with V103N): 105.2
- LogEC50 (WT-3, run paired with Y205R): -8.678
- Span (best-fit) (WT-3, run paired with Y205R): 89.51
- Top (best-fit) (WT-3, run paired with Y205R): 106
- Bottom (best-fit value) (WT-1 (run 1)): -1.411
- LogEC50 (best-fit value) (WT-1 (run 1)): -9.3
- Span (best-fit value) (WT-1 (run 1)): 105.2
- Top (best-fit value) (WT-1 (run 1)): 103.8
- Bottom (best-fit value) (WT-2 (run 2)): 7.891
- LogEC50 (best-fit value) (WT-2 (run 2)): -9.109
- Span (best-fit value) (WT-2 (run 2)): 96.39
- Top (best-fit value) (WT-2 (run 2)): 104.3
- Bottom (best-fit value) (WT-3 (run 3)): 0.01788
- LogEC50 (best-fit value) (WT-3 (run 3)): -8.988
- Span (best-fit value) (WT-3 (run 3)): 104.7
- Top (best-fit value) (WT-3 (run 3)): 104.8
- Bottom [3]: -4.038
- LogEC50 [3]: -8.63
- Span [3]: 111.8
- Top [3]: 107.8
- Bottom [4]: -5.769
- LogEC50 [4]: -8.575
- Span [4]: 113.8
- Top [4]: 108
- Bottom [5]: -1.411
- LogEC50 [5]: -9.3
- Span [5]: 105.2
- Top [5]: 103.8
- Bottom [6]: -0.438
- LogEC50 [6]: -8.811
- Span [6]: 112.4
- Top [6]: 112
- Bottom [7]: -4.818
- LogEC50 [7]: -8.937
- Span [7]: 111
- Top [7]: 106.2
- Bottom [8]: -0.9578
- LogEC50 [8]: -9.526
- Span [8]: 107.3
- Top [8]: 106.4
- Bottom [9]: -3.466
- LogEC50 [9]: -9.53
- Span [9]: 116.5
- Top [9]: 113
- Bottom [10]: -6.932
- LogEC50 [10]: -9.494
- Span [10]: 126.2
- Top [10]: 119.3
- Bottom [11]: -3.016
- LogEC50 [11]: -8.949
- Span [11]: 106.8
- Top [11]: 103.7
- LogEC50 [12]: -9.218
- Span [12]: 100.2
- Top [12]: 103.5
- LogEC50 [13]: -8.923
- Span [13]: 98.67
- Top [13]: 106.5
- LogEC50 [14]: -8.998
- Span [14]: 106.7
- Top [14]: 106.1
- Bottom [15]: 7.891
- LogEC50 [15]: -9.109
- Span [15]: 96.39
- Top [15]: 104.3
- Bottom [16]: -2.459
- LogEC50 [16]: -8.801
- Span [16]: 121.7
- Top [16]: 119.3
- Bottom [17]: 2.655
- LogEC50 [17]: -9.073
- Span [17]: 104.2
- Top [17]: 106.8
- Bottom [18]: -2.459
- LogEC50 [18]: -8.801
- Span [18]: 121.7
- Top [18]: 119.3
- Bottom [19]: 3.281
- LogEC50 [19]: -9.218
- Span [19]: 100.2
- Top [19]: 103.5
- Bottom [20]: 7.801
- LogEC50 [20]: -8.923
- Span [20]: 98.67
- Top [20]: 106.5

— publication PMC9944328 (Nature Communications, 2023)
